The values below come from patent US11963960B2 (Flash Therapeutics, LLC, priority 2020, dated 2024).

Sequence of N-terminally GST-tagged HCK (75-526) (P08631 75-526): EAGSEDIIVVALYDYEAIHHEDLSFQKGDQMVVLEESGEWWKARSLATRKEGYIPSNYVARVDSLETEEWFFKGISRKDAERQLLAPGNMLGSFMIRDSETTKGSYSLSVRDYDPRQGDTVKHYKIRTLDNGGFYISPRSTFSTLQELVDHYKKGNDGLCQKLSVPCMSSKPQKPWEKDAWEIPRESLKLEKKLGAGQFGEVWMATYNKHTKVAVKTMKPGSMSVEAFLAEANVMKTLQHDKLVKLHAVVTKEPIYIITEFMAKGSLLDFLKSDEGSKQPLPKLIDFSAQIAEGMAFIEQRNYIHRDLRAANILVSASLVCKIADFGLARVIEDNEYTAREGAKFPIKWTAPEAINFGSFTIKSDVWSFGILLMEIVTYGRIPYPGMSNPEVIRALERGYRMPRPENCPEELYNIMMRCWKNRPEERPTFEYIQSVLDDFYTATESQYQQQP

In this assay the target is N-terminally GST-tagged HCK (75-526) (Homo sapiens (Human), UniProt P08631). The assay can be described thus: HCK Kinase Assay (ProFluor Src-Family Kinase Assay). The assay is classed as biochemical. To be noted: HCK inhibitory activity, 50 μM ATP; read-out: HCK Activity. As to the method:
The procedure of ProFluor Src-Family Kinase Assay (Promega, Cat. No. V1271) was then followed. To the reaction was added 5 μL Protease solution and the mixture was incubated for 60 minutes at room temperature (22-25° C.), followed by 5 μL Stabilizer solution. The fluorescence signal was read on an Envision multilabel plate reader (Perkin Elmer). The R110 was then read at an excitation wavelength of 485 nm and an emission wavelength of 530 nm. The AMC signal was read at an excitation wavelength of 355 nm and an emission wavelength of 460 nm.
Consider `CC1(C)CN([C@H]2CC[C@H](n3nc(-c4ccc(Oc5ccccc5)cc4F)c4c(N)ncnc43)CC2)CCN1` [Example 28, 1-((trans)-4-(3,3-dimethylpiperazin-1-yl)cyclohexyl)-3-(2-fluoro-4-phenoxyphenyl)-1H-pyrazolo[3,4-d]pyrimidin-4-amine], for which the IC50 is 0.05 to 0.25 µM.

For the compound `CC[C@H]1CN([C@H]2CC[C@H](n3cc(-c4ccc(Oc5ccccc5)cc4)c4c(N)ncnc43)CC2)CCN1` [Example 29, 7-((trans)-4-((S)-3-ethylpiperazin-1-yl)cyclohexyl)-5-(4-phenoxyphenyl)-7H-pyrrolo[2,3-d]pyrimidin-4-amine], the IC50 lay in the range of 0.05 to 0.25 µM.

With `CC[C@H]1CN([C@H]2CC[C@@H](n3cc(-c4ccc(Oc5ccccc5)cc4)c4c(N)ncnc43)CC2)CCN1` [Example 30, 7-((cis)-4-((S)-3-ethylpiperazin-1-yl)cyclohexyl)-5-(4-phenoxyphenyl)-7H-pyrrolo[2,3-d]pyrimidin-4-amine], the IC50 was 0.05 to 0.25 µM.

Turning to `CC[C@H]1CN([C@H]2CC[C@H](n3nc(-c4ccc(Oc5ccccc5)cc4F)c4c(N)ncnc43)CC2)CCN1` [Example 31, 1-((trans)-4-((S)-3-ethylpiperazin-1-yl)cyclohexyl)-3-(2-fluoro-4-phenoxyphenyl)-1H-pyrazolo[3,4-d]pyrimidin-4-amine], the IC50 is under 0.05 µM.

As for `CC[C@H]1CN([C@H]2CC[C@@H](n3nc(-c4ccc(Oc5ccccc5)cc4F)c4c(N)ncnc43)CC2)CCN1` [Example 32, 1-((cis)-4-((S)-3-ethylpiperazin-1-yl)cyclohexyl)-3-(2-fluoro-4-phenoxyphenyl)-1H-pyrazolo[3,4-d]pyrimidin-4-amine], the IC50 fell in the range of 0.05 to 0.25 µM.

As to `CN1CCN([C@H]2CC[C@H](n3cc(-c4ccc(Oc5ccccc5)cc4)c4c(N)ncnc43)CC2)CC1CO` (stereo partly drawn) [Example 33, (4-((trans)-4-(4-amino-5-(4-phenoxyphenyl)-7H-pyrrolo[2,3-d]pyrimidin-7-yl)cyclohexyl)-1-methylpiperazin-2-yl)methanol], the IC50 was under 0.05 µM.

Consider `CN1CCN([C@H]2CC[C@H](n3cc(-c4ccc(Oc5ccccc5)cc4)c4c(N)ncnc43)CC2)CC1C(=O)O` (stereo partly drawn) [Example 34, 4-((trans)-4-(4-amino-5-(4-phenoxyphenyl)-7H-pyrrolo[2,3-d]pyrimidin-7-yl)cyclohexyl)-1-methylpiperazine-2-carboxylic acid], for which the IC50 was under 0.05 µM.

Consider `Nc1ncnc2c1c(-c1ccc(Oc3ccccc3)cc1)cn2[C@H]1CC[C@H](N2CCNC3(CC3)C2)CC1` [Example 35, 7-((trans)-4-(4,7-diazaspiro[2.5]octan-7-yl)cyclohexyl)-5-(4-phenoxyphenyl)-7H-pyrrolo[2,3-d]pyrimidin-4-amine], for which the IC50 was under 0.05 µM.

With `Nc1ncnc2c1c(-c1ccc(Oc3ccccc3)cc1)cn2[C@H]1CC[C@@H](N2CCNC3(CC3)C2)CC1` [Example 36, 7-((cis)-4-(4,7-diazaspiro[2.5]octan-7-yl)cyclohexyl)-5-(4-phenoxyphenyl)-7H-pyrrolo[2,3-d]pyrimidin-4-amine], the IC50 lay in the range of 0.05 to 0.25 µM.

In the case of `Nc1ncnc2c1c(-c1ccc(Oc3ccccc3)cc1)cn2C1CCC(N2CC3CCC2CN3)CC1` (centres unmarked) [Example 37, 7-(4-(2,5-diazabicyclo[2.2.2]octan-2-yl)cyclohexyl)-5-(4-phenoxyphenyl)-7H-pyrrolo[2,3-d]pyrimidin-4-amine], the IC50 was under 0.05 µM.

In the case of `Nc1ncnc2c1c(-c1ccc(Oc3ccccc3)cc1)cn2[C@H]1CC[C@H](N2CCN(N)CC2)CC1` [Example 38, 7-((trans)-4-(4-aminopiperazin-1-yl)cyclohexyl)-5-(4-phenoxyphenyl)-7H-pyrrolo[2,3-d]pyrimidin-4-amine], the IC50 was under 0.05 µM.

Take `Nc1ncnc2c1c(-c1ccc(Oc3ccccc3)cc1)cn2[C@H]1CC[C@@H](N2CCN(N)CC2)CC1` [Example 39, 7-((cis)-4-(4-aminopiperazin-1-yl)cyclohexyl)-5-(4-phenoxyphenyl)-7H-pyrrolo[2,3-d]pyrimidin-4-amine]: the IC50 is under 0.05 µM.

With `CC(=O)NN1CCN([C@H]2CC[C@H](n3cc(-c4ccc(Oc5ccccc5)cc4)c4c(N)ncnc43)CC2)CC1` [Example 40, N-(4-((trans)-4-(4-amino-5-(4-phenoxyphenyl)-7H-pyrrolo[2,3-d]pyrimidin-7-yl)cyclohexyl)piperazin-1-yl)acetamide], the IC50 is under 0.05 µM.

As to `CC(=O)NN1CCN([C@H]2CC[C@@H](n3cc(-c4ccc(Oc5ccccc5)cc4)c4c(N)ncnc43)CC2)CC1` [Example 41, N-(4-((cis)-4-(4-amino-5-(4-phenoxyphenyl)-7H-pyrrolo[2,3-d]pyrimidin-7-yl)cyclohexyl)piperazin-1-yl)acetamide], the IC50 is under 0.05 µM.

Take `Nc1ncnc2c1c(-c1ccc(Oc3ccccc3)cc1)cn2[C@H]1CC[C@H](N2CCN3C(=O)CCC3C2)CC1` (stereo partly drawn) [Example 42, 2-((trans)-4-(4-amino-5-(4-phenoxyphenyl)-7H-pyrrolo[2,3-d]pyrimidin-7-yl)cyclohexyl)hexahydropyrrolo[1,2-a]pyrazin-6(2H)-one]: the IC50 fell in the range of 0.05 to 0.25 µM.

In the case of `Nc1ncnc2c1c(-c1ccc(Oc3ccccc3)cc1)cn2[C@H]1CC[C@@H](N2CCN3C(=O)CCC3C2)CC1` (stereo partly drawn) [Example 43, 2-((cis)-4-(4-amino-5-(4-phenoxyphenyl)-7H-pyrrolo[2,3-d]pyrimidin-7-yl)cyclohexyl)hexahydropyrrolo[1,2-a]pyrazin-6(2H)-one], the IC50 is under 0.05 µM.

As to `Nc1ncnc2c1c(-c1ccc(Oc3ccccc3)cc1)cn2[C@H]1CC[C@H](N2CCN3CCCC3C2)CC1` (stereo partly drawn) [Example 44, 7-((trans)-4-(hexahydropyrrolo[1,2-a]pyrazin-2(1H)-yl)cyclohexyl)-5-(4-phenoxyphenyl)-7H-pyrrolo[2,3-d]pyrimidin-4-amine], the IC50 is under 0.05 µM.

For `Nc1ncnc2c1c(-c1ccc(Oc3ccccc3)cc1)cn2[C@H]1CC[C@@H](N2CCN3CCCC3C2)CC1` (stereo partly drawn) [Example 45, 7-((cis)-4-(hexahydropyrrolo[1,2-a]pyrazin-2(1H)-yl)cyclohexyl)-5-(4-phenoxyphenyl)-7H-pyrrolo[2,3-d]pyrimidin-4-amine], the IC50 was 0.25 to 10 µM.

For `Nc1ncnc2c1c(-c1ccc(Oc3ccccc3)cc1)cn2[C@H]1CC[C@H](N2CCN3CCC[C@H]3C2)CC1` [Example 46, 7-((trans)-4-((S)-hexahydropyrrolo[1,2-a]pyrazin-2(1H)-yl)cyclohexyl)-5-(4-phenoxyphenyl)-7H-pyrrolo[2,3-d]pyrimidin-4-amine], the IC50 was under 0.05 µM.

As to `Nc1ncnc2c1c(-c1ccc(Oc3ccccc3)cc1)cn2[C@H]1CC[C@@H](N2CCN3CCC[C@H]3C2)CC1` [Example 47, 7-((cis)-4-((S)-hexahydropyrrolo[1,2-a]pyrazin-2(1H)-yl)cyclohexyl)-5-(4-phenoxyphenyl)-7H-pyrrolo[2,3-d]pyrimidin-4-amine], the IC50 was 0.05 to 0.25 µM.

As to `Nc1ncnc2c1c(-c1ccc(Oc3ccccc3)cc1)cn2[C@H]1CC[C@H](N2CCN3CCC[C@@H]3C2)CC1` [Example 48, 7-((trans)-4-((R)-hexahydropyrrolo[1,2-a]pyrazin-2(1H)-yl)cyclohexyl)-5-(4-phenoxyphenyl)-7H-pyrrolo[2,3-d]pyrimidin-4-amine], the IC50 is under 0.05 µM.

As for `Nc1ncnc2c1c(-c1ccc(Oc3ccccc3)cc1)cn2[C@H]1CC[C@@H](N2CCN3CCC[C@@H]3C2)CC1` [Example 49, 7-((cis)-4-((R)-hexahydropyrrolo[1,2-a]pyrazin-2(1H)-yl)cyclohexyl)-5-(4-phenoxyphenyl)-7H-pyrrolo[2,3-d]pyrimidin-4-amine], the IC50 is under 0.05 µM.

Take `CC1(N)CCN([C@H]2CC[C@H](n3cc(-c4ccc(Oc5ccccc5)cc4)c4c(N)ncnc43)CC2)CC1` [Example 50, 7-((trans)-4-(4-amino-4-methylpiperidin-1-yl)cyclohexyl)-5-(4-phenoxyphenyl)-7H-pyrrolo[2,3-d]pyrimidin-4-amine]: the IC50 lay in the range of 0.05 to 0.25 µM.

Consider `CC1(N)CCN([C@H]2CC[C@@H](n3cc(-c4ccc(Oc5ccccc5)cc4)c4c(N)ncnc43)CC2)CC1` [Example 51, 7-((cis)-4-(4-amino-4-methylpiperidin-1-yl)cyclohexyl)-5-(4-phenoxyphenyl)-7H pyrrolo[2,3-d]pyrimidin-4-amine], for which the IC50 was under 0.05 µM.

In the case of `Nc1ncnc2c1c(-c1ccc(Oc3ccccc3)cc1)cn2[C@H]1CC[C@H](N2CCC(N)CC2)CC1` [Example 52, 7-((trans)-4-(4-aminopiperidin-1-yl)cyclohexyl)-5-(4-phenoxyphenyl)-7H-pyrrolo[2,3-d]pyrimidin-4-amine], the IC50 is under 0.05 µM.

`Nc1ncnc2c1c(-c1ccc(Oc3ccccc3)cc1)cn2[C@H]1CC[C@@H](N2CCC(N)CC2)CC1` [Example 53, 7-((cis)-4-(4-aminopiperidin-1-yl)cyclohexyl)-5-(4-phenoxyphenyl)-7H-pyrrolo[2,3-d]pyrimidin-4-amine]: the IC50 was in the range of 0.05 to 0.25 µM.

Turning to `Nc1ncnc2c1c(-c1ccc(Oc3ccccc3)cc1)cn2[C@H]1CC[C@H](N2CCCC(N)C2)CC1` (stereo partly drawn) [Example 54, 7-((trans)-4-(3-aminopiperidin-1-yl)cyclohexyl)-5-(4-phenoxyphenyl)-7H-pyrrolo[2,3-d]pyrimidin-4-amine], the IC50 is under 0.05 µM.

Turning to `Nc1ncnc2c1c(-c1ccc(Oc3ccccc3)cc1)cn2[C@H]1CC[C@@H](N2CCCC(N)C2)CC1` (stereo partly drawn) [Example 55, 7-((cis)-4-(3-aminopiperidin-1-yl)cyclohexyl)-5-(4-phenoxyphenyl)-7H-pyrrolo[2,3-d]pyrimidin-4-amine], the IC50 is under 0.05 µM.

For the compound `Nc1ncnc2c1c(-c1ccc(Oc3ccccc3)cc1)cn2[C@H]1CC[C@H](N2CCC[C@H](N)C2)CC1` [Example 56, 7-((trans)-4-((S)-3-aminopiperidin-1-yl)cyclohexyl)-5-(4-phenoxyphenyl)-7H-pyrrolo[2,3-d]pyrimidin-4-amine], the IC50 was under 0.05 µM.
